Experimental data: ChEMBL document CHEMBL1201862, “PubChem BioAssay data set” (2004)
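Briefly, cells in 96-well plates were exposed to five compound concentrations for 48 h, and endpoints were estimated by linear interpolation. GI50: concentration for 50% inhibition of growth.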 Activity calls are given as the source filed them. Cut-off read from the data, not from the text of the source: active = GI50 up to about 1.1 µM and inactive = higher.

Columns and labels:
Assay in all cases: inhibition of tumour cell growth, NCI panel, 48 h
HCT-15 = test system: HCT-15
SK-OV-3 = test system: SK-OV-3
MOLT-4 = test system: MOLT-4
SK-MEL-5 = test system: SK-MEL-5
ACHN = test system: ACHN
SNB-78 = test system: SNB-78
SK-MEL-28 = test system: SK-MEL-28
HOP-62 = test system: HOP-62
NCI-H226 = test system: NCI-H226
KM12 = test system: KM12
786-0 = test system: 786-0
UO-31 = test system: UO-31
DMS-114 = test system: DMS-114
SF-268 = test system: SF-268
RXF 393 = test system: RXF 393
Malme-3M = test system: Malme-3M
NCI-H460 = test system: NCI-H460
COLO 205 = test system: COLO 205
A549 = test system: A549
A498 = test system: A498

| SMILES | GI50 (HCT-15) [µM] | GI50 (SK-OV-3) | GI50 (MOLT-4) | GI50 (SK-MEL-5) | GI50 (ACHN) | GI50 (SNB-78) | GI50 (SK-MEL-28) | GI50 (HOP-62) | GI50 (NCI-H226) | GI50 (KM12) | GI50 (786-0) | GI50 (UO-31) | GI50 (DMS-114) | GI50 (SF-268) | GI50 (RXF 393) | GI50 (Malme-3M) | GI50 (NCI-H460) | GI50 (COLO 205) | GI50 (A549) | GI50 (A498) |
| --- | --- | --- | --- | --- | --- | --- | --- | --- | --- | --- | --- | --- | --- | --- | --- | --- | --- | --- | --- | --- |
| CNCCCCN(C)/[N+]([O-])=N\O | > 100 | > 100 µM (inactive) | > 100 µM (inactive) | > 100 µM (inactive) | > 100 µM (inactive) | > 100 µM (inactive) | > 100 µM (inactive) | > 100 µM (inactive) | > 100 µM (inactive) | > 100 µM (inactive) | > 100 µM (inactive) | > 100 µM (inactive) | > 100 µM (inactive) | > 100 µM (inactive) | > 100 µM (inactive) | > 100 µM (inactive) | > 100 µM (inactive) | > 100 µM (inactive) | > 100 µM (inactive) | – |
| CSc1c(C)c(C)nn1-c1ccccc1 | > 100 | > 100 µM (inactive) | > 100 µM (inactive) | > 100 µM (inactive) | > 100 µM (inactive) | > 100 µM (inactive) | > 100 µM (inactive) | – | – | > 100 µM (inactive) | > 100 µM (inactive) | > 100 µM (inactive) | > 100 µM (inactive) | > 100 µM (inactive) | > 100 µM (inactive) | > 100 µM (inactive) | > 100 µM (inactive) | > 100 µM (inactive) | > 100 µM (inactive) | > 100 µM (inactive) |
| CC(C)(c1cn(Cc2ccccc2)c2ccccc12)c1cn(Cc2ccccc2)c2ccccc12 | > 100 | > 100 µM (inactive) | > 100 µM (inactive) | > 100 µM (inactive) | > 100 µM (inactive) | > 100 µM (inactive) | – | > 100 µM (inactive) | 51.3 µM (inactive) | > 100 µM (inactive) | > 100 µM (inactive) | – | > 100 µM (inactive) | > 100 µM (inactive) | – | 1.94 µM (inactive) | > 100 µM (inactive) | > 100 µM (inactive) | > 100 µM (inactive) | – |
| O=C(Cc1nc2ccccc2s1)Nc1ccc(Cl)cc1 | – | > 100 µM (inactive) | > 100 µM (inactive) | 83.8 µM (inactive) | 56.5 µM (inactive) | > 100 µM (inactive) | > 100 µM (inactive) | > 100 µM (inactive) | > 100 µM (inactive) | 78.5 µM (inactive) | > 100 µM (inactive) | > 100 µM (inactive) | – | > 100 µM (inactive) | > 100 µM (inactive) | > 100 µM (inactive) | > 100 µM (inactive) | > 100 µM (inactive) | 97.9 µM (inactive) | > 100 µM (inactive) |
| CC(C)(C)OC1=C(OC(C)(C)C)C(O)(c2ccccc2)C1=O (centres undefined) | > 100 | > 100 µM (inactive) | > 100 µM (inactive) | > 100 µM (inactive) | > 100 µM (inactive) | > 100 µM (inactive) | > 100 µM (inactive) | – | – | > 100 µM (inactive) | > 100 µM (inactive) | > 100 µM (inactive) | > 100 µM (inactive) | > 100 µM (inactive) | > 100 µM (inactive) | > 100 µM (inactive) | > 100 µM (inactive) | > 100 µM (inactive) | > 100 µM (inactive) | > 100 µM (inactive) |
| COC(=O)C1=C(C(=O)OC)C2(C3C(SC)=CC(C)(C)CC3S1)N(Cc1ccccc1)CCN2Cc1ccccc1 (centres undefined) | > 100 | > 100 µM (inactive) | > 100 µM (inactive) | 65.5 µM (inactive) | 48.2 µM (inactive) | > 100 µM (inactive) | > 100 µM (inactive) | > 100 µM (inactive) | > 100 µM (inactive) | > 100 µM (inactive) | > 100 µM (inactive) | > 100 µM (inactive) | > 100 µM (inactive) | > 100 µM (inactive) | 54.7 µM (inactive) | > 100 µM (inactive) | > 100 µM (inactive) | > 100 µM (inactive) | > 100 µM (inactive) | – |
| CCCCCCCCCCN(CCCCCCCCCC)C(=O)COc1c2cc(C(C)(C)C)cc1Cc1cc(C(C)(C)C)cc(c1OCC(=O)N(CCCCCCCCCC)CCCCCCCCCC)Cc1cc(C(C)(C)C)cc(c1OCC(=O)N(CCCCCCCCCC)CCCCCCCCCC)Cc1cc(C(C)(C)C)cc(c1OCC(=O)N(CCCCCCCCCC)CCCCCCCCCC)C2 | 8.77 | 14.4 µM (inactive) | 2.76 µM (inactive) | 13.5 µM (inactive) | 14.9 µM (inactive) | – | 11.3 µM (inactive) | 16.1 µM (inactive) | 19.3 µM (inactive) | 11.5 µM (inactive) | 11.2 µM (inactive) | 22 µM (inactive) | – | 15.1 µM (inactive) | 9.68 µM (inactive) | 15 µM (inactive) | 12.6 µM (inactive) | 15.8 µM (inactive) | 16 µM (inactive) | 15.5 µM (inactive) |
| CCCCCCCCCCCC(=O)C1=C(O)CC(O)CC1=O (centres undefined) | – | > 100 µM (inactive) | 88.1 µM (inactive) | > 100 µM (inactive) | 99.8 µM (inactive) | > 100 µM (inactive) | > 100 µM (inactive) | > 100 µM (inactive) | 68.7 µM (inactive) | 59.4 µM (inactive) | > 100 µM (inactive) | 64.4 µM (inactive) | 64.3 µM (inactive) | > 100 µM (inactive) | > 100 µM (inactive) | – | > 100 µM (inactive) | > 100 µM (inactive) | 59.4 µM (inactive) | – |
| CCN(CC)CCCC(C)Nc1c(Sc2cnc3cc(Cl)ccc3c2NC(C)CCCN(CC)CC)cnc2cc(Cl)ccc12 (centres undefined) | 1.72 | 1.66 µM (inactive) | 2.37 µM (inactive) | – | 1.98 µM (inactive) | 2.73 µM (inactive) | 1.86 µM (inactive) | – | 1.76 µM (inactive) | 2.07 µM (inactive) | 1.54 µM (inactive) | 21.1 µM (inactive) | – | 2.02 µM (inactive) | 1.67 µM (inactive) | 2.13 µM (inactive) | 1.74 µM (inactive) | 1.46 µM (inactive) | 1.68 µM (inactive) | 1.85 µM (inactive) |
| CC(C)/C(Cl)=N\OC(=O)Nc1ccc(F)c([N+](=O)[O-])c1 | 2.59 | 19.1 µM (inactive) | 1.57 µM (inactive) | 8.43 µM (inactive) | 1.79 µM (inactive) | – | 12.6 µM (inactive) | 17.8 µM (inactive) | 23.7 µM (inactive) | 14.6 µM (inactive) | 2.78 µM (inactive) | 6.56 µM (inactive) | – | 14.3 µM (inactive) | 18 µM (inactive) | 1.16 µM (inactive) | 2.41 µM (inactive) | 2.03 µM (inactive) | 23.9 µM (inactive) | 19.2 µM (inactive) |
| Cc1ccc(S(=O)(=O)C(CC(=O)N2CCCC2)C(=O)c2ccccc2)cc1 (centres undefined) | – | – | 25.6 µM (inactive) | > 100 µM (inactive) | > 100 µM (inactive) | 54.6 µM (inactive) | > 100 µM (inactive) | > 100 µM (inactive) | – | > 100 µM (inactive) | > 100 µM (inactive) | > 100 µM (inactive) | > 100 µM (inactive) | 83.4 µM (inactive) | > 100 µM (inactive) | > 100 µM (inactive) | > 100 µM (inactive) | > 100 µM (inactive) | > 100 µM (inactive) | – |
| CN(C)c1ccc(/C=c2/sc3nc(=O)c(-c4ccccc4NC(=O)C(F)(F)F)nn3c2=O)cc1 | – | > 100 µM (inactive) | > 100 µM (inactive) | > 100 µM (inactive) | > 100 µM (inactive) | > 100 µM (inactive) | > 100 µM (inactive) | > 100 µM (inactive) | 26.4 µM (inactive) | > 100 µM (inactive) | > 100 µM (inactive) | 50 µM (inactive) | 20.6 µM (inactive) | > 100 µM (inactive) | > 100 µM (inactive) | > 100 µM (inactive) | > 100 µM (inactive) | 98.6 µM (inactive) | > 100 µM (inactive) | – |
| CC1CCC2CC(=O)OC([C@@H]3C(=O)O[C@@H](C4=CCCC4)C4C(C)CCC43)C12 (some centres undefined) | 48.2 | > 100 µM (inactive) | 36.2 µM (inactive) | 97.7 µM (inactive) | 61.4 µM (inactive) | > 100 µM (inactive) | > 100 µM (inactive) | > 100 µM (inactive) | > 100 µM (inactive) | 42 µM (inactive) | > 100 µM (inactive) | > 100 µM (inactive) | 27.7 µM (inactive) | > 100 µM (inactive) | > 100 µM (inactive) | > 100 µM (inactive) | 58.1 µM (inactive) | 32.4 µM (inactive) | > 100 µM (inactive) | – |
| Nc1cccc(-c2cc(O)c3cc4c(cc3n2)OCO4)c1 | 1.23 | 1.28 µM (inactive) | 2.07 µM (inactive) | 0.427 µM (active) | 3.87 µM (inactive) | 0.834 µM (active) | 2.19 µM (inactive) | 1.87 µM (inactive) | 1.85 µM (inactive) | 0.593 µM (active) | 2.16 µM (inactive) | 12.5 µM (inactive) | – | 1.77 µM (inactive) | 1.02 µM (active) | 0.318 µM (active) | 4.28 µM (inactive) | 0.384 µM (active) | 4.09 µM (inactive) | 2.45 µM (inactive) |
| Cc1c2cc[n+](C)cc2c(C)c2c1[nH]c1ccc(OCC(F)(F)F)cc12 | – | 3.89 µM (inactive) | 2.61 µM (inactive) | 1.55 µM (inactive) | – | 0.622 µM (active) | – | 0.789 µM (active) | 0.499 µM (active) | 2.53 µM (inactive) | 0.378 µM (active) | – | 1.42 µM (inactive) | 0.376 µM (active) | – | 2.02 µM (inactive) | 1.85 µM (inactive) | 1.46 µM (inactive) | 1.53 µM (inactive) | – |
